Laboratory results reported in the NIST ThermoML archive (doi:10.1016/j.jct.2010.08.019).
“And” between values parts separate entries of the source, which are not always exact repeats. Equal entries are not always repeated. Numbers after ± are expanded uncertainties.

Legend:
[1] = for surface tension liquid-gas: Wilhelmy-plate method; for viscosity / mass density: Liquid; for viscosity: Falling or rolling sphere viscometry; for mass density: Vibrating tube method
[2] = refractive index (Na D-line) (dimensionless); conditions: Liquid, Standard Abbe refractometry
[3] = xn = mol fraction of the nth substance listed; conditions: for surface tension liquid-gas: Wilhelmy-plate method; for viscosity / mass density: 101 kPa, Liquid; for viscosity: Falling or rolling sphere viscometry; for mass density: Vibrating tube method
[4] = refractive index (Na D-line) (dimensionless); xn = mol fraction of the nth substance listed; conditions: 101 kPa, Liquid, Standard Abbe refractometry

SMILES | surface tension liquid-gas ([1]; 293.15 K) [mN/m] | viscosity ([1]; 293.15 K, 101 kPa) [mPa·s] | mass density ([1]; 293.15 K, 101 kPa) [kg/m3] | surface tension liquid-gas ([1]; 298.15 K) [mN/m] | viscosity ([1]; 298.15 K, 101.33 kPa) [mPa·s] | mass density ([1]; 298.15 K, 101.33 kPa) [kg/m3] | surface tension liquid-gas ([1]; 303.15 K) [mN/m] | viscosity ([1]; 303.15 K, 101 kPa) [mPa·s] | mass density ([1]; 303.15 K, 101 kPa) [kg/m3] | surface tension liquid-gas ([1]; 313.15 K) [mN/m] | viscosity ([1]; 313.15 K, 101 kPa) [mPa·s] | mass density ([1]; 313.15 K, 101 kPa) [kg/m3] | surface tension liquid-gas ([1]; 323.15 K) [mN/m] | viscosity ([1]; 323.15 K, 101 kPa) [mPa·s] | mass density ([1]; 323.15 K, 101 kPa) | refractive index ([2]; 293.15 K, 101 kPa) | refractive index ([2]; 298.15 K, 101.33 kPa) | refractive index ([2]; 303.15 K, 101 kPa) | refractive index ([2]; 313.15 K, 101 kPa) | refractive index ([2]; 323.15 K, 101 kPa) | also measured
C1CCOCC1 [tetrahydropyran] | 27.5 ± 0.4 | 0.86 ± 0.011 | 884.27 ± 0.23 | 27.2 ± 0.4 | 0.8 ± 0.01 | 878.8 ± 0.2 | 26.2 ± 0.4 | 0.749 ± 0.01 | 874.07 ± 0.23 | 25.1 ± 0.4 | 0.658 ± 0.01 | 863.76 ± 0.47 | 23.8 ± 0.4 | 0.565 ± 0.009 | 666.8 ± 0.83 kg/m3 and 853.46 ± 0.24 kg/m3 | 1.39161 ± 0.00037 and 1.42109 ± 0.00037 | 1.4186 ± 0.0004 | 1.3866 ± 0.00037 and 1.41599 ± 0.00037 | 1.38143 ± 0.00037 and 1.41092 ± 0.00037 | 1.37627 ± 0.00037 and 1.40554 ± 0.00037 | 
CC(C)O [propan-2-ol] + C1CCOCC1 |  |  |  |  |  |  |  |  |  |  |  |  |  |  |  |  |  |  |  |  | surface tension liquid-gas ([3]; 293.15 K, x1 = 1): 21.3 ± 0.4 mN/m; viscosity ([3]; 293.15 K, x1 = 1): 2.362 ± 0.02 mPa·s; mass density ([3]; 293.15 K, x1 = 1): 785.44 ± 0.15 kg/m3; surface tension liquid-gas ([3]; 303.15 K, x1 = 1): 20.4 ± 0.4 mN/m; viscosity ([3]; 303.15 K, x1 = 1): 1.769 ± 0.016 mPa·s; mass density ([3]; 303.15 K, x1 = 1): 776.75 ± 0.15 kg/m3; surface tension liquid-gas ([3]; 313.15 K, x1 = 1): 19.6 ± 0.4 mN/m; viscosity ([3]; 313.15 K, x1 = 1): 1.331 ± 0.013 mPa·s; mass density ([3]; 313.15 K, x1 = 1): 767.93 ± 0.15 kg/m3; surface tension liquid-gas ([3]; 323.15 K, x1 = 1): 18.8 ± 0.4 mN/m; viscosity ([3]; 323.15 K, x1 = 1): 1.019 ± 0.012 mPa·s; mass density ([3]; 323.15 K, x1 = 1): 758.9 ± 0.16 kg/m3; refractive index ([4]; 293.15 K, x1 = 1): 1.37724 ± 0.00033; refractive index ([4]; 303.15 K, x1 = 1): 1.37286 ± 0.00033; refractive index ([4]; 313.15 K, x1 = 1): 1.36852 ± 0.00033; refractive index ([4]; 323.15 K, x1 = 1): 1.36363 ± 0.00033
CC(C)CC(C)(C)C [2,2,4-trimethylpentane] | 18.8 ± 0.4 | 0.503 ± 0.009 | 691.98 ± 0.18 | 18.3 ± 0.4 | 0.475 ± 0.009 | 687.7 ± 0.2 | 17.9 ± 0.4 | 0.447 ± 0.009 | 683.61 ± 0.18 | 16.9 ± 0.4 | 0.404 ± 0.009 | 675.23 ± 0.18 | 16.2 ± 0.4 | 0.365 ± 0.009 | 666.8 ± 0.19 kg/m3 | 1.39161 ± 0.00033 | 1.38906 ± 0.00033 | 1.3866 ± 0.00033 | 1.38143 ± 0.00033 | 1.37627 ± 0.00033 | 
CC(C)O [propan-2-ol] | 21.3 ± 0.4 | 2.362 ± 0.02 | 785.44 ± 0.15 | 20.9 ± 0.4 | 2.04 ± 0.02 | 781.05 ± 0.15 | 20.4 ± 0.4 | 1.769 ± 0.016 | 776.75 ± 0.15 | 19.6 ± 0.4 | 1.331 ± 0.013 | 767.93 ± 0.15 | 18.8 ± 0.4 | 1.019 ± 0.012 | 758.9 ± 0.16 kg/m3 | 1.37724 ± 0.00033 | 1.3752 ± 0.00033 | 1.37286 ± 0.00033 | 1.36852 ± 0.00033 | 1.36363 ± 0.00033 | 
CC(C)O [propan-2-ol] + CC(C)CC(C)(C)C |  |  |  |  |  |  |  |  |  |  |  |  |  |  |  |  |  |  |  |  | surface tension liquid-gas ([3]; 293.15 K, x1 = 1): 21.3 ± 0.4 mN/m; viscosity ([3]; 293.15 K, x1 = 1): 2.362 ± 0.02 mPa·s; mass density ([3]; 293.15 K, x1 = 1): 785.44 ± 0.15 kg/m3; surface tension liquid-gas ([3]; 303.15 K, x1 = 1): 20.4 ± 0.4 mN/m; viscosity ([3]; 303.15 K, x1 = 1): 1.769 ± 0.016 mPa·s; mass density ([3]; 303.15 K, x1 = 1): 776.75 ± 0.15 kg/m3; surface tension liquid-gas ([3]; 313.15 K, x1 = 1): 19.6 ± 0.4 mN/m; viscosity ([3]; 313.15 K, x1 = 1): 1.331 ± 0.013 mPa·s; mass density ([3]; 313.15 K, x1 = 1): 767.93 ± 0.15 kg/m3; surface tension liquid-gas ([3]; 323.15 K, x1 = 1): 18.8 ± 0.4 mN/m; viscosity ([3]; 323.15 K, x1 = 1): 1.019 ± 0.012 mPa·s; mass density ([3]; 323.15 K, x1 = 1): 758.9 ± 0.16 kg/m3; refractive index ([4]; 293.15 K, x1 = 1): 1.37724 ± 0.00033; refractive index ([4]; 303.15 K, x1 = 1): 1.37286 ± 0.00033; refractive index ([4]; 313.15 K, x1 = 1): 1.36852 ± 0.00033; refractive index ([4]; 323.15 K, x1 = 1): 1.36363 ± 0.00033
CC(C)CC(C)(C)C [2,2,4-trimethylpentane] + C1CCOCC1 |  |  |  |  |  |  |  |  |  |  |  |  |  |  |  |  |  |  |  |  | surface tension liquid-gas ([3]; 293.15 K, x2 = 0): 18.8 ± 0.4 mN/m; viscosity ([3]; 293.15 K, x2 = 0): 0.503 ± 0.009 mPa·s; mass density ([3]; 293.15 K, x2 = 0): 691.98 ± 0.18 kg/m3; surface tension liquid-gas ([3]; 303.15 K, x2 = 0): 17.9 ± 0.4 mN/m; viscosity ([3]; 303.15 K, x2 = 0): 0.447 ± 0.009 mPa·s; mass density ([3]; 303.15 K, x2 = 0): 683.61 ± 0.18 kg/m3; surface tension liquid-gas ([3]; 313.15 K, x2 = 0): 16.9 ± 0.4 mN/m; viscosity ([3]; 313.15 K, x2 = 0): 0.404 ± 0.009 mPa·s; mass density ([3]; 313.15 K, x2 = 0): 675.23 ± 0.18 kg/m3; surface tension liquid-gas ([3]; 323.15 K, x2 = 0): 16.2 ± 0.4 mN/m; viscosity ([3]; 323.15 K, x2 = 0): 0.365 ± 0.009 mPa·s; mass density ([3]; 323.15 K, x2 = 0): 666.8 ± 0.19 kg/m3; refractive index ([4]; 293.15 K, x2 = 0): 1.39161 ± 0.00033; refractive index ([4]; 303.15 K, x2 = 0): 1.3866 ± 0.00033; refractive index ([4]; 313.15 K, x2 = 0): 1.38143 ± 0.00033; refractive index ([4]; 323.15 K, x2 = 0): 1.37627 ± 0.00033
